The results in this text go back to ChEMBL document CHEMBL1135570, “Acyclic analogues of adenosine bisphosphates as P2Y receptor antagonists: phosphate substitution leads to multiple pathways of inhibition of platelet aggregation” (J Med Chem, 2002).

The species named for this assay is Rattus norvegicus. Put plainly: Inhibition of ADP-induced activation of rat platelets using aggregometry. The format is functional.
Take `CNc1ncnc2c1ncn2CC(COP(=O)(O)O)COP(=O)(O)O`: affinity was put at a Ki of 0.51 µM. For `CNc1nc(Cl)nc2c1ncn2CC(COC(=O)Nc1ccccc1)COC(=O)Nc1ccccc1` the value was 24 µM; for `CNc1nc(Cl)nc2c1ncn2CC(CP(=O)(O)O)CP(=O)(O)O`, 0.68 µM. `CCNC(=O)O[C@@H]1CC(n2cnc3c(NC)nc(Cl)nc32)O[C@@H]1COP(=O)(O)O` (stereo partly drawn): affinity was put at a Ki of 11 µM. For `CNc1nc(Cl)nc2c1ncn2C[C@@H](COP(=O)(O)O)OP(=O)(O)O` the value was 1.4 µM; for `CNc1nc(Cl)nc2c1ncn2C1C[C@@H](OC(=O)NC(C)C)[C@@H](COP(=O)(O)O)O1` (stereo partly drawn), 6.4 µM; for `CNc1nc(Cl)nc2c1ncn2CC(COC(=S)SCc1ccccc1)COC(=S)SCc1ccccc1`, 87 µM.

With `CNc1nc(Cl)nc2c1ncn2CC(COC(=O)CCC(=O)O)COC(=O)CCC(=O)O`, the Ki (in general, the equilibrium dissociation constant of an inhibitor or competing ligand from its target) was found to be 18 µM. For the compound `CNc1nc(Cl)nc2c1ncn2C(COP(=O)(O)O)COP(=O)(O)O`, the inhibition constant (Ki) amounted to 5.5 µM. With `CNc1nc(Cl)nc2c1ncn2CC(COC(=O)c1c(F)cccc1F)COC(=O)c1c(F)cccc1F`, the affinity corresponds to a Ki of 33 µM. For `CNc1nc(Cl)nc2c1ncn2C[C@H](COP(=O)(O)O)OP(=O)(O)O` the value was 2.6 µM; for `CNc1nc(Cl)nc2c1ncn2CC(COC(=O)Cc1ccccc1)COC(=O)Cc1ccccc1`, 2 µM. The figure for `CNc1nc(Cl)nc2c1ncn2CC(COC(=O)Nc1ccccc1)COP(=O)(O)O` (stereo not drawn) is 2.5 µM; for `CNc1nc(Cl)nc2c1ncn2CCC(COP(=O)(O)O)COP(=O)(O)O` it is 0.46 µM.

In the case of `CCC(=O)OCC(COC(=O)CC)Cn1cnc2c(NC)nc(Cl)nc21`, the affinity corresponds to a Ki of 23 µM.

Turning to `CNc1nc(Cl)nc2c1ncn2CC(COC(=O)Oc1ccccc1)COC(=O)Oc1ccccc1`, the inhibitory constant (Ki) was found to be 26 µM. For `CNc1nc(Cl)nc2c1ncn2CC(CCCP(=O)(O)O)CCCP(=O)(O)O` the value was 25 µM; for `C/C=C\C(=O)OCC(COC(=O)/C=C/C)Cn1cnc2c(NC)nc(Cl)nc21` (stereo not drawn), 10 µM; for `CNc1ncnc2c1ncn2[C@H]1C[C@H](OP(=O)(O)O)[C@@H](COP(=O)(O)O)O1`, 0.58 µM. The figure for `CNc1nc(Cl)nc2c1ncn2CC(COC(=O)c1ccccc1)COC(=O)c1ccccc1` is 5.1 µM; for `CNc1nc(Cl)nc2c1ncn2CC(COC(=O)c1ccccc1F)COC(=O)c1ccccc1F` it is 24 µM; for `CNc1nc(Cl)nc2c1ncn2CC(COC(=O)C(C)(C)C)COP(=O)(O)O` (stereo not drawn) it is 29 µM.

In turn, `CNc1nc(Cl)nc2c1ncn2CC(COC(=O)C(C)(C)C)COC(=O)C(C)(C)C` registered a Ki of 3.6 µM. With `CNc1nc(Cl)nc2c1ncn2CC(COC(C)=O)COC(=O)Cc1ccccc1` (stereo not drawn), the affinity, expressed as Ki, was 12.3 µM.

For `CNc1nc(Cl)nc2c1ncn2[C@H]1CC(OP(=O)(O)O)[C@]2(COC(C)=O)CC12` (stereo partly drawn), the affinity, expressed as Ki, was 16 µM.

In turn, `CNc1nc(Cl)nc2c1ncn2CC(COC(C)=O)COC(=O)c1ccccc1` (stereo not drawn) registered a Ki of 6.9 µM. Consider `CNc1nc(Cl)nc2c1ncn2CC(COC(C)=O)COC(C)=O`, for which the Ki was 18 µM. `CCC(=O)OCC(COP(=O)(O)O)Cn1cnc2c(NC)nc(Cl)nc21` (stereo not drawn) showed a Ki of 21 µM.

The compound `CNc1nc(Cl)nc2c1ncn2[C@H]1CC(OP(=O)(O)O)[C@]2(CO)CC12` (stereo partly drawn) registered a Ki of 29 µM. For `CNc1nc(Cl)nc2c1ncn2CC(COP(=O)(O)O)COP(=O)(O)O` the value was 0.3 µM.

With `CNc1nc(Cl)nc2c1ncn2[C@H]1C[C@@H](OP(=O)(O)O)[C@]2(COP(=O)(O)O)C[C@H]12`, the Ki came to 0.031 µM. `CNc1nc(Cl)nc2c1ncn2CC(COC(C)=O)COP(=O)(O)O` (stereo not drawn) registered an inhibition constant Ki of 110 µM. In turn, `CNc1nc(Cl)nc2c1ncn2[C@H]1CC(O)[C@]2(COP(=O)(O)O)CC12` (stereo partly drawn) had a Ki of 33 µM. The figure for `CNc1nc(Cl)nc2c1ncn2[C@H]1C[C@@H](OP(=O)(O)O)[C@@H](COP(=O)(O)O)O1` is 0.42 µM; for `CNc1nc(Cl)nc2c1ncn2[C@H]1CC(OC(C)=O)[C@]2(COP(=O)(O)O)CC12` (stereo partly drawn) it is 10 µM; for `CNc1nc(Cl)nc2c1ncn2[C@H]1CC(OC(C)=O)[C@]2(COC(C)=O)CC12` (stereo partly drawn) it is 29 µM. For `CNc1nc(Cl)nc2c1ncn2CC(COC(=O)c1ccccc1)COP(=O)(O)O` (stereo not drawn), the Ki worked out at 18 µM.

The compound `CNc1nc(Cl)nc2c1ncn2CC(COP(=O)(O)OP(=O)(O)O)CP(=O)(O)O` (stereo not drawn) returned a Ki of 1.1 µM.
